Tested on: nephritis induced by anti-GBM antiserum in wild type mouse
Assay: Nephritis induced by anti-GBM antiserum in wild type mice: amount of albumin in urine
Assay type: in vivo
Conditions: for amount of albumin in urine: urine collected 18 hours after final administration
Description: Anti-GBM antiserum was administered to the wild type mice to induce nephritis, the mice were classified into three groups and the first group was administered with a peptide having an amino acid sequence of SLIGRL which is a selective stimulant for PAR-2 while the second group was administered with prednisolone which has been used as a treating agent for nephritis. In each group, administration was conducted once daily for consecutive seven days. The third group was a group which was not treated with a drug (control group). Further, for comparison, another untreated group where no anti-GBM antiserum was administered was prepared as the fourth group (in each group, n=6).
Immediately after the final administration of the drug solution, urine was collected for 18 hours and the amount of albumin in urine was measured.
In the same manner, anti-GBM antiserum was administered to the wild type mice to induce nephritis, the mice were classified into three groups and the first group was administered with ASKH95 which is a selective stimulant for PAR-2 while the second group was administered with prednisolone which has been used as a treating agent for nephritis. In each group, administration was conducted once daily for consecutive seven days. The third group was a group which was not treated with a drug (control group) (in each group, n=6).
Nephritis was induced by a single administration of […] having about 16-fold of titer of antibody in an amount of 0.4 ml per mouse into tail vein (Jpn. J. Pharmacol., 33, 1145-1154, 1983). With regard to the amount of albumin in urine used as an index for nephritis, the amount of albumin in urine collected for 18 hours using a metabolic cage (manufactured by Sugiyamagen) was determined using an ELISA kit manufactured by Exocel and expressed in terms of μg/18 hours/100 g body weight. The resulting data were analyzed by a Student t-test and evaluated.
(§1) Anti-GBM antiserum was administered to a wild type mouse and, immediately after that, 0.3 μmol/kg of SLIGRL which is a selective stimulant for PAR-2 dissolved in a phosphate buffer or 3 mg/kg of prednisolone suspended in 0.5% methyl cellulose solution was administered thereto once daily for consecutive seven days (in each group, n=6). SLIGRL was administered to tail vein with a dose of 1 ml/100 g body weight at the rate of 0.1 ml/second. Prednisolone was compulsorily administered per os with a dose of 1 ml/100 g body weight. As a control, a group which was not treated with a drug (control group) was set up. As from immediately after the final administration of the drug solution, urine was collected for 18 hours using a metabolic cage and the amount of albumin in urine was measured.
as §1, with “In the same manner as example 3, anti-GBM” for “Anti-GBM”, “10 mg/kg” for “0.3 μmol/kg”, “ASKH95” for “SLIGRL”, “measured. Incidentally, ASKH95 is synthesized according to the literature (J. Clin. Invest. 111, 35-41, 2003), and used.” for “measured.”

Compound: 2-furoyl-LIGKV-OH [ASKH95]
- effect on amount of albumin in urine compared with control group (in words) (Example 4, ASKH95 10 mg/kg to tail vein once daily for seven days): decreased significantly
- amount of albumin in urine (Example 4, ASKH95 10 mg/kg to tail vein once daily for seven days, control group 81319.0±8884.3): 34709.6±8703.3 μg/18 hours/100 g body weight

Compound: C[C@]12C=CC(=O)C=C1CC[C@@H]1[C@@H]2[C@@H](O)C[C@@]2(C)[C@H]1CC[C@]2(O)C(=O)CO [prednisolone]
- amount of albumin in urine reduced to an extent of % of the control group (Example 3, prednisolone 3 mg/kg per os once daily for seven days, not a significant suppression): 52.7%
- amount of albumin in urine (Example 3, prednisolone 3 mg/kg per os once daily for seven days, control group 3528.5±1238.6): 1670.6±579.4 μg/18 hours/100 g body weight
- effect on amount of albumin in urine compared with control group (in words) (Example 4, prednisolone 3 mg/kg per os once daily for seven days): almost no effect
- amount of albumin in urine (Example 4, prednisolone 3 mg/kg per os once daily for seven days, control group 81319.0±8884.3): 75692.1±12846.9 μg/18 hours/100 g body weight

Compound: SLIGRL
- amount of albumin in urine (Example 3, SLIGRL 0.3 μmol/kg to tail vein once daily for seven days, control group 3528.5±1238.6): 104.2±54.0 μg/18 hours/100 g body weight
- decrease of amount of albumin in urine (Example 3, SLIGRL 0.3 μmol/kg to tail vein once daily for seven days, versus control group, significant): 97.0%
